Experimental data reported in article PMC3593816 (Protein expression and purification, 2013).

Biological target: T1, Siglec5 (Homo sapiens, UniProt O15389, C36A)
T1 sequence (O15389 19-141 C36A): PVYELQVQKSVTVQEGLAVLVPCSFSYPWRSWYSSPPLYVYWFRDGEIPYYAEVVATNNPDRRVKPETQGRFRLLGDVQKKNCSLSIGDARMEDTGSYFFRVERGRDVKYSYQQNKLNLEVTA
Assay: 2D 1H-15N HSQC NMR titration
Assay type: binding

| SMILES | Kd |
| --- | --- |
| CC(=O)N[C@H]1[C@H]([C@H](O)[C@H](O)CO)OC(O)(C(=O)O)C[C@@H]1O (mixture of isomers) [sialic acid] | > 100 mM |
| CC(=O)N[C@H]1[C@H]([C@H](O)[C@H](O)CO)O[C@@](OC[C@H]2O[C@@H](O[C@H]3[C@H](O)[C@@H](O)C(O)O[C@@H]3CO)[C@H](O)[C@@H](O)[C@H]2O)(C(=O)O)C[C@@H]1O (some centres unmarked) [6′-sialyllactose] | 31 ± 8 mM |
